Results reported in patent US12338223B2 (PURISYS LLC, priority 2019, dated 2025).
Converted amounts (≈) assume the structure as drawn.

Experiments:
CB2 receptor = CB2 receptor (Homo sapiens, UniProt P34972); conditions: fold lower affinity than THC; cited from earlier work
[1] = Solubility of CBN in crystallization solvents (solvent screen); type: physicochemical; conditions: organic solvent or mixture, RT
CB1 receptor [2] = target: T1, CB1 receptor (Homo sapiens, UniProt P21554); conditions: fold lower affinity than THC; cited from earlier work
CB1 receptor [3] = target: T1, CB1 receptor; conditions: cited from earlier work

T1 sequence (P21554 whole entry): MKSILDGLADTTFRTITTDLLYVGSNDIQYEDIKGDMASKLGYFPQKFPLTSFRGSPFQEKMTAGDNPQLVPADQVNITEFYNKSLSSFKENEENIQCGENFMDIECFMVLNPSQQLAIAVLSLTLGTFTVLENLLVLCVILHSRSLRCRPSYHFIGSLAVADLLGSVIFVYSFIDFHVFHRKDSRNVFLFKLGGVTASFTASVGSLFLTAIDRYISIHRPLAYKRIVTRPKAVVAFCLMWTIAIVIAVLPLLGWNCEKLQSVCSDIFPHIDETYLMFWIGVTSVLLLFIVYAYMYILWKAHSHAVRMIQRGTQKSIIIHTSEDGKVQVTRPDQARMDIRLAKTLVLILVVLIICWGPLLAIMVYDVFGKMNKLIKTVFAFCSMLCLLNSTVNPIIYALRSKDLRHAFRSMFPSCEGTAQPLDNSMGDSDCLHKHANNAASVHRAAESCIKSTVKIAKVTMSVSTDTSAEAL
Chain of CB2 receptor (P34972 whole entry): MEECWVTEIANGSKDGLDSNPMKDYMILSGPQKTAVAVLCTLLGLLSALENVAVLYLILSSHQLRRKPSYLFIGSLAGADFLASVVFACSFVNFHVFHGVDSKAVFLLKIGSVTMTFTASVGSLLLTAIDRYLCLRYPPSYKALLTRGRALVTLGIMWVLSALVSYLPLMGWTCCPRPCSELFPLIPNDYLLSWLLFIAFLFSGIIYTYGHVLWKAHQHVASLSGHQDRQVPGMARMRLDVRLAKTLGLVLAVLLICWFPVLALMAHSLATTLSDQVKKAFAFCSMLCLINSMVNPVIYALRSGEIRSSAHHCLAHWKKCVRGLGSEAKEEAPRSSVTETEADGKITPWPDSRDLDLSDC

For CCCCCc1cc(O)c2c(c1)OC(C)(C)c1ccc(C)cc1-2 [CBN, cannabinol], the “Affinity lower relative to THC” value (CB2 receptor) is given as “about 3 fold”, the solubility ([1]; solvent Iso-Octane) is given as 24.9 mg/mL (≈ 80.2 mM) and the solubility ([1]; solvent n-Heptane) is given as 33.4 mg/mL (≈ 108 mM). The “Affinity lower relative to THC” value (CB1 receptor [2]) was 7- to 8 fold and the “Type of activity at CB1 receptors” value (CB1 receptor [3]) was “partial agonist”.
